Test results from US20260165974A1, “Moisture-proof L-a-glycerylphosphorylcholine” (NANJING NUTRABUILDING BIO-TECH CO., LTD., priority 2023, published 2026).
Blank lines part the entries; values can stand above or below the compound they belong to.

Columns and labels:
Assay type in all cases: physicochemical
[1] = Fluidity and repose angle before and after open storage at 25° C./75% RH for 0~3 h
Description: (§1) Study method: 5 g of sample was weighed into a weighing dish (60*30 mm), and placed in an open position at 25° C./75% RH to observe the moisture-proof effect for 0˜3 h.

[2] = Score of fluidity, adhesiveness and deliquescence at 25° C./75% RH
Description: as §1
(§2) See Table 3-1 for the scoring standards of some examples. See Table 3-2 for the score results of fluidity, adhesiveness and deliquescence of moisture-proof L-α-glycerylphosphorylcholine.

[3] = Passing rate of 20-mesh sieve at 25° C./75% RH
Description: as §1, §2

[4] = Hygroscopicity: moisture absorption weight gain in artificial climate box; settings: temperature 25° C., relative humidity 75%
Description: Specific test method: A dry glass weighing bottle with plug (outer diameter 50 mm, height 15 mm) was placed in an artificial climate box (temperature 25° C., relative humidity 75%) one day before the test, and was accurately weighed (m1). An appropriate amount of test sample was spread in the weighing bottle (thickness of test sample is generally about 1 mm), and it was accurately weighed (m2). The weighing bottle was opened and placed with the bottle cap under the above-mentioned constant temperature and humidity conditions. The weighing bottle was taken out at 5 min, 10 min, 20 min, 30 min, 60 min, 120 min and 180 min respectively, and accurately weighed (m3). The weight gain percentage was calculated according to the calculation formula: weight gain percentage=100%× (m3−m2)/(m2−m1).

[5] = after open placing at 25° C./75% RH, 3 h
[6] = before placing at 25° C./75% RH

Appearance and fluidity, After [1, 5]: All deliquescent and | Repose angle, After [1, 5]: unmeasurable | Appearance and fluidity, Before [1, 6]: Crystalloid/particle, good | Repose angle, Before [1, 6]: 41° | score of fluidity, adhesiveness and deliquescence ([2]; 5 min): 9 | score of fluidity, adhesiveness and deliquescence ([2]; 10 min): 0 | score of fluidity, adhesiveness and deliquescence ([2]; 20 min): 0 | score of fluidity, adhesiveness and deliquescence ([2]; 30 min): 0 | score of fluidity, adhesiveness and deliquescence ([2]; 60 min): 0 | score of fluidity, adhesiveness and deliquescence ([2]; 120 min): 0 | score of fluidity, adhesiveness and deliquescence ([2]; 180 min): 0 | passing rate of 20-mesh sieve ([3]; 5 min): 97% | passing rate of 20-mesh sieve ([3]; 10 min): 35% | passing rate of 20-mesh sieve ([3]; 20 min): 24% | passing rate of 20-mesh sieve ([3]; 30 min): 2% | passing rate of 20-mesh sieve ([3]; 60 min): 0% | passing rate of 20-mesh sieve ([3]; 120 min): 0% | passing rate of 20-mesh sieve ([3]; 180 min): 0%
Structure (SMILES): C[N+](C)(C)CCOP(=O)([O-])OC[C@H](O)CO [Raw material, L-α-glycerylphosphorylcholine]

weight gain percentage ([4]; 5 min): 3.0% | weight gain percentage ([4]; 10 min): 4.2% | weight gain percentage ([4]; 20 min): 7.4% | weight gain percentage ([4]; 30 min): 9.5% | weight gain percentage ([4]; 60 min): 12.3% | weight gain percentage ([4]; 120 min): 14.6% | weight gain percentage ([4]; 180 min): 18.5%
Structure (SMILES): C[N+](C)(C)CCOP(=O)([O-])OC[C@H](O)CO [Raw material 1, L-α-glycerylphosphorylcholine]

weight gain percentage ([4]; 5 min): 3.2% | weight gain percentage ([4]; 10 min): 4.1% | weight gain percentage ([4]; 20 min): 7.2% | weight gain percentage ([4]; 30 min): 9.4% | weight gain percentage ([4]; 60 min): 12.6% | weight gain percentage ([4]; 120 min): 14.4% | weight gain percentage ([4]; 180 min): 18.7%
Structure (SMILES): C[N+](C)(C)CCOP(=O)([O-])OC[C@H](O)CO [Raw material 2, L-α-glycerylphosphorylcholine]
